Data from patent US8809396B2, “Substituted fused-ring compounds for inflammation and immune-related uses” (Synta Pharmaceuticals Corp., priority 2007, dated 2014).

Test system: IL-2 production
Test: Inhibition of IL-2 production in PHA-activated Jurkat cells (ELISA)
Assay type: cell-based
Details: Homo sapiens, PHA 2.5 μg/mL, 20 hours, IL-2 ELISA
Procedure: Jurkat cells were placed in a 96 well plate (0.5 million cells per well in 1% FBS medium) then a test compound of this invention was added at different concentrations. After 10 minutes, the cells were activated with PHA (final concentration 2.5 μg/mL) and incubated for 20 hours at 37° C. under CO2. The final volume was 200 μL. Following incubation, the cells were centrifuged and the supernatants collected and stored at −70° C. prior to assaying for IL-2 production. A commercial ELISA kit (IL-2 Eli-pair, Diaclone Research, Besancon, France) was used to detect production of IL-2, from which dose response curves were obtained. The IC50 value was calculated as the concentration at which 50% of maximum IL-2 production after stimulation was inhibited versus a non-stimulation control.

C/C(C(=O)O)=C1/CCCc2cc(NC(=O)c3c(F)cccc3F)ccc21 [Compound 1, 2-[6-(2,6-Difluoro-benzoylamino)-3,4-dihydro-2H-naphthalen-1-ylidene]-propionic acid]
IC50: > 1000 nM

COC(=O)/C(C)=C1\CCCc2cc(NC(=O)c3c(F)cccc3F)ccc21 [Compound 2, 2-[6-(2,6-Difluoro-benzoylamino)-3,4-dihydro-2H-naphthalen-1-ylidene]-propionic acid methyl ester]
IC50: > 1000 nM

C/C(C(=O)N1CCOCC1)=C1/CCCc2cc(NC(=O)c3c(F)cccc3F)ccc21 [Compound 3, 2,6-Difluoro-N-[5-(1-methyl-2-morpholin-4-yl-2-oxo-ethylidene)-5,6,7,8-tetrahydro-naphthalen-2-yl]-benzamide]
IC50: 18 nM

C/C(CO)=C1/CCCc2cc(NC(=O)c3c(F)cccc3F)ccc21 [Compound 5, 2,6-Difluoro-N-[5-(2-hydroxy-1-methyl-ethylidene)-5,6,7,8-tetrahydro-naphthalen-2-yl]-benzamide]
IC50: > 1000 nM

O=C(Nc1ccc2c(c1)CCCC=C2c1ccccc1)c1c(F)cccc1F [Compound 6, 2,6-Difluoro-N-(5-phenyl-8,9-dihydro-7H-benzocyclohepten-2-yl)-benzamide]
IC50: 168 nM

CC1=C(c2ccccc2)c2ccc(NC(=O)c3c(F)cccc3F)cc2CCC1 [Compound 7, 2,6-Difluoro-N-(5-phenyl-6-methyl-8,9-dihydro-7H-benzocyclohepten-2-yl)-benzamide]
IC50: 392 nM

Nc1ccc(C2=CCCCc3cc(NC(=O)c4c(F)cccc4F)ccc32)cc1 [Compound 8, 2,6-Difluoro-N-[5-(4-amino-phenyl)-8,9-dihydro-7H-benzocyclohepten-2-yl]-benzamide]
IC50: 146 nM

CC(=O)Nc1ccc(C2=CCCCc3cc(NC(=O)c4c(F)cccc4F)ccc32)cc1 [Compound 9, 2,6-Difluoro-N-[5-(4-acetylamino-phenyl)-8,9-dihydro-7H-benzocyclohepten-2-yl]-benzamide]
IC50: 560 nM
